These results are taken from patent publication US12122763B2, “Substituted piperidines for androgen receptor degradation” (UBIX THERAPEUTICS, INC., priority 2020, dated 2024).

Each structure is given as a SMILES string.

As a reminder, the inhibition is the change of the read-out against control, counted positive when it falls.

This assay concerns the target T1, Androgen Receptor (AR) protein (Homo sapiens, UniProt P10275, T878A).
T1 construct: endogenous in cells; host or cells: LNCaP
Description: Androgen Receptor (AR) protein degradation assay in LNCaP cells, western blotting. In kind it is cell-based. As to conditions: 20 h; for inhibition at 0.01 µM: 0.01 μM compound; for inhibition at 0.1 µM: 0.1 μM compound; for inhibition at 1 µM: 1 μM compound; for inhibition at 10 µM: 10 μM compound. As to the method:
Experimental Example 1: Androgen Receptor (AR) Protein Degradation Assay
After treating LNCaP cells with the synthesized Example compound, the amount of AR protein present in the cells was measured. The amount of AR protein was measured using western blotting detection method. The protocol of the experiment using LNCaP cells was as follows:
[Culture] LNCaP cells were resuspended in RPMI1640 MEDIUM (Hyclone, SH30027.01), 10% FBS (Hyclone, SV30207.02), and 1% Penicillin-streptomycin (Welgene, LS 202-02) media to be 3×10^5/mL. Then, 1 mL each was seeded in a 12-well plate. After that, they were cultured for 3 days.
[Compound treatment] 10 μl of 0.1, 1, 10, and 100 μM compound, which is the final compound treatment concentration and a 100× stock of 0.001, 0.01, 0.1, and 1 μM, was added in 1 ml media of each well, and 20 hours later, the cells were harvested.
[Cell Lysis] Cell pellets were suspended using 1% SDS lysis buffer (50 mM Tris, 1 mM EDTA, 1% SDS, pH 8.0, 0.5 mM PMSF, 1× Protease/Phosphatase inhibitor Cocktail (Cell Signaling Technology, 5872s)), and sonication (70% AMP, 5 cycles (30 sec ON/59 sec OFF)) was performed. Cell lysate was obtained after centrifugation at 4° C., 15000 g, for 20 minutes.
[Protein quantification] A BCA protein assay (SMART™ BCA Protein Assay Kit, iNtRON Biotechnology, 21071) was performed using a 96-well microplate. After adding 5 μl cell lysate and 5 μl 1% SDS lysis buffer to each well of the 96-well plate, 200 μl of BCA reagent (Reagent A:Reagent B=50:1) was additionally added. After incubation at 37° C. for 30 minutes, it was cooled at room temperature for 10 minutes. Then, absorbance was measured at a wavelength of 562 nm. The unknown protein concentration was measured using a BSA standard curve (0, 0.125, 0.25, 0.5, 1, 2 mg/ml). Western blotting samples were prepared by mixing cell lysate, 1% SDS lysis buffer, 4× Bolt™ LDS Sample buffer (Invitrogen, B0008), and 10× Bolt™ Sample Reducing Agent (Invitrogen, B0009) and boiling the mixture at 70° C. for 10 minutes.
[Electrophoresis] After loading 8 μg of protein sample into each well of Bolt™ 4 to 12%, Bis-Tris, 1.0 mm Mini Protein Gel, 17-well (Invitrogen, NW04127BOX), Bolt™ MES SDS Running Buffer (Invitrogen, B0002) was used for electrophoresis at 200V (constant V) for 50 minutes.
[Transfer] Using electrophoresis gel and Trans-Blot® Turbo™ Transfer Starter System (Bio-RAD, #17001918, Mini Nitrocellulose), transfer proceeded for 15 minutes under the condition of 1.3A (Constant A) and 25V (Limit V). To confirm protein transfer, 15 ml of Ponceau S solution (Sigma, P7170-1L) was used for staining for 1 minute, followed by washing to confirm the degree of transfer.
[Blocking] Membranes for AR detection were blocked for 45 minutes with 5% skim milk/0.2% TBST (Skim milk: BD, 232100/20× TBS: Biosesang, TR2008-100-00/10% Tween 20 Solution: Bio-RAD, #161-0781). Membranes for GAPDH and β-actin detection were blocked for 45 minutes with Odyssey blocking buffer: 0.1% TBST=1:1 (Odyssey blocking buffer: Li-COR Biosciences, 927-50000).
[Antibody and detection] The primary AR antibody (Androgen Receptor: CST, 5153s) was mixed with 5% skim milk/0.2% TBST at a ratio of 1:1000 and attached for 3 hours at room temperature. Primary β-actin antibody (GeneTex, 629630) was mixed with 5% BSA/0.2% TBST at a ratio of 1:2000 and attached for 3 hours at room temperature. Primary GAPDH antibody (GeneTex, 100118) was mixed with 5% BSA/0.2% TBST at a ratio of 1:2000 and attached for 3 hours at room temperature. After 3 hours, it was washed 3 times every 5 minutes using TBST (0.2% Tween 20). Anti-rabbit IgG, HRP-linked Antibody (CST, 7074s), secondary antibody for the AR antibody was mixed with 5% skim milk/0.2% TBST at a ratio of 1:5000 and attached for 45 minutes at room temperature. […]
(In general: A western blot detects proteins with antibodies after separation by electrophoresis.)

T1 sequence (P10275 whole entry T878A): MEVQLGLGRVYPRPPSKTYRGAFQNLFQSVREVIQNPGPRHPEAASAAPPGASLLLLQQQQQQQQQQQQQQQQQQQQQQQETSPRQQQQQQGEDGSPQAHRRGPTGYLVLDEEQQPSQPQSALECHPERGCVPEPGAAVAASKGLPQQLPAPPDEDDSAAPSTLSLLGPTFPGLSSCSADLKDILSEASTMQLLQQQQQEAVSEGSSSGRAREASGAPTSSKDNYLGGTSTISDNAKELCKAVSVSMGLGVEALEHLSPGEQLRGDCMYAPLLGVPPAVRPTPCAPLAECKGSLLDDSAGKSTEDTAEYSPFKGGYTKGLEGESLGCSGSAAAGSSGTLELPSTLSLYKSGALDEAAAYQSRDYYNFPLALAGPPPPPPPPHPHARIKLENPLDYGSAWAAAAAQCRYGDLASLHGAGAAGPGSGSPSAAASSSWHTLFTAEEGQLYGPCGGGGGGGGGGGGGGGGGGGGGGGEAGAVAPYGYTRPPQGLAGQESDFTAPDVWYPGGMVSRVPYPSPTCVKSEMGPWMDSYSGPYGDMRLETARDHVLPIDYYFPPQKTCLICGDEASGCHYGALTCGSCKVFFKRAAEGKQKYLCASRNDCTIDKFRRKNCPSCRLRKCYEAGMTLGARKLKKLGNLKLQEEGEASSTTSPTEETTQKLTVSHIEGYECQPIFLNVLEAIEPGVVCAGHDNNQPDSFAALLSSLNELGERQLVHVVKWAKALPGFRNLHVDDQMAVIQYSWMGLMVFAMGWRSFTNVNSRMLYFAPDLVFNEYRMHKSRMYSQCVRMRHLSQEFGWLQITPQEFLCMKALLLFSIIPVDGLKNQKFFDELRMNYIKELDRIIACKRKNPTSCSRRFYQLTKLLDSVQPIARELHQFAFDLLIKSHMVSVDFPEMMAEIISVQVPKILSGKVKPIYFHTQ
T1 sequence (Q96SW2 whole entry partner): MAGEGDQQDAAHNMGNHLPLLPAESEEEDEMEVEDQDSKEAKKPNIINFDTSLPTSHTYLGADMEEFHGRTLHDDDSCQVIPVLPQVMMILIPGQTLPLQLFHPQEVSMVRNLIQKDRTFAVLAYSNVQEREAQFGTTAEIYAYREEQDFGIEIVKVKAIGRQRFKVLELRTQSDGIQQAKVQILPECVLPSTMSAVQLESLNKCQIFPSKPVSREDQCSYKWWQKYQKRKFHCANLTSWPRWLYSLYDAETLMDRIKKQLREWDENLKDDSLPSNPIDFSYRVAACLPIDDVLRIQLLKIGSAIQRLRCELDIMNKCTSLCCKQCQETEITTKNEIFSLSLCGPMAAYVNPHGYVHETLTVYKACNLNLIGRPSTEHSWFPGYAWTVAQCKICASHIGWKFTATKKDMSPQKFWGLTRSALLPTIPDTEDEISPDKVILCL

As to `N#Cc1ccc(N2CCC(C(=O)Nc3ccc(N4CCC(CN5CCN(c6ccc7c(c6)C(=O)N(C6CCC(=O)NC6=O)C7=O)CC5)CC4)cn3)CC2)cc1C(F)(F)F` (stereo not drawn) [Example 1, 1-(4-cyano-3-(trifluoromethyl)phenyl)-N-(5-(4-((4-(2-(2,6-dioxopiperidin-3-yl)-1,3-dioxoisoindolin-5-yl)piperazin-1-yl)methyl)piperidin-1-yl)pyridin-2-yl)piperidine-4-carboxamide], the inhibition at 0.01 µM worked out at 55%, the inhibition at 0.1 µM was determined as 98%, the inhibition at 1 µM stood at 99% and the inhibition at 10 µM stood at 99%.
As to `N#Cc1ccc(N2CCC(C(=O)Nc3ccc(N4CCC(CN5CCN(c6ccc7c(c6)C(=O)N(C6CCC(=O)NC6=O)C7=O)CC5)CC4)cn3)CC2)cc1Cl` (stereo not drawn) [Example 2, 1-(3-chloro-4-cyanophenyl)-N-(5-(4-((4-(2-(2,6-dioxopiperidin-3-yl)-1,3-dioxoisoindolin-5-yl)piperazin-1-yl)methyl)piperidin-1-yl)pyridin-2-yl)piperidine-4-carboxamide], the inhibition at 0.01 µM is -9%, the inhibition at 0.1 µM was 68%, the inhibition at 1 µM was determined as 97% and the inhibition at 10 µM came out at 96%.
`N#Cc1ccc(N2CCC(C(=O)Nc3ccc(N4CCC(CN5CCN(CCOc6ccc7c(c6)C(=O)N(C6CCC(=O)NC6=O)C7=O)CC5)CC4)cn3)CC2)cc1C(F)(F)F` (stereo not drawn) [Example 3, 1-(4-cyano-3-(trifluoromethyl)phenyl)-N-(5-(4-((4-(2-((2-(2,6-dioxopiperidin-3-yl)-1,3-dioxoisoindolin-5-yl)oxy)ethyl)piperazin-1-yl)methyl)piperidin-1-yl)pyridin-2-yl)piperidine-4-carboxamide]: the inhibition at 0.01 µM is 45%, the inhibition at 0.1 µM amounted to 98% and the inhibition at 1 µM was determined as 96%.
Taken in the same sequence, the figures for `N#Cc1ccc(N2CCC(C(=O)Nc3ccc(N4CCC(CN5CCN(Cc6ccc7c(c6)C(=O)N(C6CCC(=O)NC6=O)C7=O)CC5)CC4)cn3)CC2)cc1C(F)(F)F` (stereo not drawn) [Example 4, 1-(4-cyano-3-(trifluoromethyl)phenyl)-N-(5-(4-((4-((2-(2,6-dioxopiperidin-3-yl)-1,3-dioxoisoindolin-5-yl)methyl)piperazin-1-yl)methyl)piperidin-1-yl)pyridin-2-yl)piperidine-4-carboxamide] were 24%, 86% and 96%.
For the compound `N#Cc1ccc(N2CCC(C(=O)Nc3ccc(N4CCC(CN5CCN(C(=O)CNc6ccc7c(c6)C(=O)N(C6CCC(=O)NC6=O)C7=O)CC5)CC4)cn3)CC2)cc1C(F)(F)F` (stereo not drawn) [Example 5, 1-(4-cyano-3-(trifluoromethyl)phenyl)-N-(5-(4-((4-((2-(2,6-dioxopiperidin-3-yl)-1,3-dioxoisoindolin-5-yl)glycyl)piperazin-1-yl)methyl)piperidin-1-yl)pyridin-2-yl)piperidine-4-carboxamide], the inhibition at 0.01 µM turned out to be 82%, the inhibition at 0.1 µM came out at 97%, the inhibition at 1 µM amounted to 97% and the inhibition at 10 µM was 97%.
Turning to `N#Cc1ccc(N2CCC(C(=O)Nc3ccc(N4CCC(CN5CCN(CC6CCN(c7ccc8c(c7)C(=O)N(C7CCC(=O)NC7=O)C8=O)CC6)CC5)CC4)cn3)CC2)cc1Cl` (stereo not drawn) [Example 7, 1-(3-chloro-4-cyanophenyl)-N-(5-(4-((4-((1-(2-(2,6-dioxopiperidin-3-yl)-1,3-dioxoisoindolin-5-yl)piperidin-4-yl)methyl)piperazin-1-yl)methyl)piperidin-1-yl)pyridin-2-yl)piperidine-4-carboxamide], the inhibition at 0.01 µM was found to be 87%, the inhibition at 0.1 µM was determined as 99%, the inhibition at 1 µM worked out at 99% and the inhibition at 10 µM came out at 94%.
As for `N#Cc1ccc(N2CCC(F)(C(=O)Nc3ccc(N4CCC(CN5CCN(CC6CCN(c7ccc8c(c7)C(=O)N(C7CCC(=O)NC7=O)C8=O)CC6)CC5)CC4)cn3)CC2)cc1C(F)(F)F` (stereo not drawn) [Example 8, 1-(4-cyano-3-(trifluoromethyl)phenyl)-N-(5-(4-((4-((1-(2-(2,6-dioxopiperidin-3-yl)-1,3-dioxoisoindolin-5-yl)piperidin-4-yl)methyl)piperazin-1-yl)methyl)piperidin-1-yl)pyridin-2-yl)-4-fluoropiperidine-4-carboxamide], the inhibition at 0.01 µM stood at 37%, the inhibition at 0.1 µM was 87% and the inhibition at 1 µM stood at 95%.
Taken in the same sequence, the figures for `N#Cc1ncc(N2CCC(C(=O)Nc3ccc(N4CCC(CN5CCN(CC6CCN(c7ccc8c(c7)C(=O)N(C7CCC(=O)NC7=O)C8=O)CC6)CC5)CC4)cn3)CC2)cc1C(F)(F)F` (stereo not drawn) [Example 9, 1-(6-cyano-5-(trifluoromethyl)pyridin-3-yl)-N-(5-(4-((4-((1-(2-(2,6-dioxopiperidin-3-yl)-1,3-dioxoisoindolin-5-yl)piperidin-4-yl)methyl)piperazin-1-yl)methyl)piperidin-1-yl)pyridin-2-yl)piperidine-4-carboxamide] were 62%, 95% and 95%.
Taken in the same sequence, the figures for `N#Cc1ncc(N2CCC(F)(C(=O)Nc3ccc(N4CCC(CN5CCN(CC6CCN(c7ccc8c(c7)C(=O)N(C7CCC(=O)NC7=O)C8=O)CC6)CC5)CC4)cn3)CC2)cc1C(F)(F)F` (stereo not drawn) [Example 10, 1-(6-cyano-5-(trifluoromethyl)pyridin-3-yl)-N-(5-(4-((4-((1-(2-(2,6-dioxopiperidin-3-yl)-1,3-dioxoisoindolin-5-yl)piperidin-4-yl)methyl)piperazin-1-yl)methyl)piperidin-1-yl)pyridin-2-yl)-4-fluoropiperidine-4-carboxamide] were 9%, 52% and 74%.
For `N#Cc1ccc(N2CCC(C(=O)Nc3ccc(N4CCC(CN5CCN(CC6CN(c7ccc8c(c7)C(=O)N(C7CCC(=O)NC7=O)C8=O)C6)CC5)CC4)cn3)CC2)cc1C(F)(F)F` (stereo not drawn) [Example 11, 1-(4-cyano-3-(trifluoromethyl)phenyl)-N-(5-(4-((4-((1-(2-(2,6-dioxopiperidin-3-yl)-1,3-dioxoisoindolin-5-yl)azetidin-3-yl)methyl)piperazin-1-yl)methyl)piperidin-1-yl)pyridin-2-yl)piperidine-4-carboxamide], the inhibition at 0.01 µM stood at 76%, the inhibition at 0.1 µM was 97%, the inhibition at 1 µM stood at 97% and the inhibition at 10 µM turned out to be 93%.
For `N#Cc1ccc(N2CCC(C(=O)Nc3ccc(N4CCC(CN5CCN(CC6CN(c7ccc8c(c7)C(=O)N(C7CCC(=O)NC7=O)C8=O)C6)CC5)CC4)cn3)CC2)cc1Cl` (stereo not drawn) [Example 12, 1-(3-chloro-4-cyanophenyl)-N-(5-(4-((4-((1-(2-(2,6-dioxopiperidin-3-yl)-1,3-dioxoisoindolin-5-yl)azetidin-3-yl)methyl)piperazin-1-yl)methyl)piperidin-1-yl)pyridin-2-yl)piperidine-4-carboxamide], the inhibition at 0.01 µM was determined as 52%, the inhibition at 0.1 µM was determined as 95%, the inhibition at 1 µM was 97% and the inhibition at 10 µM is 94%.
